Results on seven compounds are retold here after patent US20240228572A1 (i2o Therapeutics, Inc., priority 2020, published 2024).

Series [1] addresses T1, human Glucagon receptor (GCGR) (Homo sapiens, UniProt P47871).
T1 construct: A cDNA fragment encoding the full-length open reading frame of the human GCGR; expressed in transfected cells; host or cells: CHO-K1, pcDNA3.1+, Lipofectamine 2000
Put plainly: cAMP accumulation assay, CHO-K1 cells expressing human GCGR. As to conditions: mean pEC50, Table 10. Format: cell-based.

Series [2] has as its target T2, human GLP-1 receptor (GLP-1R) (Homo sapiens, UniProt P43220).
T2 construct: expressed in transfected cells
Put plainly: cAMP accumulation assay, CHO-K1 cells stably expressing human GLP-1R. Format: cell-based. The note with it: cAMP accumulation, mean pEC50, Table 10. Background: Changes in cAMP serve as a functional read-out for many G protein-coupled receptors.

For series [3] the following is noted: cited from earlier work.

As a reminder, the EC50 is the concentration needed to bring the measured effect to its halfway point. Low values mean a more potent agent, high ones a less potent agent.

*1 amine or outer side, *2 acyl side, *3 side chain or, on linkers, in order; H or OH if unused. Where a SMILES comes first, the peptide text is derived from it. Bridges are numbered along the chain shown (N, C = ends). Side-chain parts run from the residue outwards. The star is where a group is joined. C20 diacid = O=C(O)CCCCCCCCCCCCCCCCCCC(=O)*; γGlu = O=C(O)[C@H](CCC(=O)[*:2])N[*:1]; AEEA = NCCOCCOCC(=O)O A value given as a limit tells only on which side of the number the result lay.

T2 sequence (P43220 24-463): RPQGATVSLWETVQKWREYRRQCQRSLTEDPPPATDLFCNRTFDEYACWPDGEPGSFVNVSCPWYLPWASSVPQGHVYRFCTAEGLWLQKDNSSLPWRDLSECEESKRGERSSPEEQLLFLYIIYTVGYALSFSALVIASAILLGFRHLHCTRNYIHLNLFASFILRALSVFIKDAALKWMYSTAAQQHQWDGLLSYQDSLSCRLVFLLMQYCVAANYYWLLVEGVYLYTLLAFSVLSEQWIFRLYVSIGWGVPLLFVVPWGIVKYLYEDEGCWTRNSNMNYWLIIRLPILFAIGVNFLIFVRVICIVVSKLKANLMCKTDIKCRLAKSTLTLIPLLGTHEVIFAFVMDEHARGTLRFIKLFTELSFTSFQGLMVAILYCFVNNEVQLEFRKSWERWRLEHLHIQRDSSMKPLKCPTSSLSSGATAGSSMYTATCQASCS
T1 sequence (P47871 26-477): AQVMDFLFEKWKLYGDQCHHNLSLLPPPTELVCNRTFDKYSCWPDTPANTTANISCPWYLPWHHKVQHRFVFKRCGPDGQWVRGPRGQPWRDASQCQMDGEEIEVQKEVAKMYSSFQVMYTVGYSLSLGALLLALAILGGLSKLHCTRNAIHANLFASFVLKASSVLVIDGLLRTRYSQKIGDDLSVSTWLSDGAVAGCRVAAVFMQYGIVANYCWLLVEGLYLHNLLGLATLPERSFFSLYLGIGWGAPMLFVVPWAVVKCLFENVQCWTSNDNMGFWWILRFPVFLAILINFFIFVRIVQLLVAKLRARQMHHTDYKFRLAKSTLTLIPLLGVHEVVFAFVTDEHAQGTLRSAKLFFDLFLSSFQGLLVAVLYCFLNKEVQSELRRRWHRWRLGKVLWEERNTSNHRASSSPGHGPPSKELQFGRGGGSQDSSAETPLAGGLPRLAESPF

With `CC(C)C[C@H](NC(=O)[C@H](Cc1ccc(O)cc1)NC(=O)[C@H](CCCCN)NC(=O)[C@H](CO)NC(=O)[C@H](Cc1ccc(O)cc1)NC(=O)[C@H](CC(=O)O)NC(=O)[C@H](CO)NC(=O)[C@@H](NC(=O)[C@H](Cc1ccccc1)NC(=O)[C@@H](NC(=O)CNC(=O)[C@H](Cc1c[nH]cn1)NC(=O)[C@H](CO)NC(=O)[C@@H](N)Cc1ccc(O)cc1)[C@@H](C)O)[C@@H](C)O)C(=O)N[C@@H](CC(=O)O)C(=O)N[C@@H](CCCCNC(=O)CC[C@H](NC(=O)CC[C@H](NC(=O)COCCOCCNC(=O)CCCCCCCCCCCCCCCCCCC(=O)O)C(=O)O)C(=O)O)C(=O)N[C@@H](CCCCN)C(=O)N[C@@H](Cc1ccc(O)cc1)C(=O)N[C@@H](C)C(=O)N[C@H]1CCC(=O)NCCCC[C@@H](C(=O)N[C@@H](Cc2c[nH]c3ccccc23)C(=O)N[C@@H](CC(C)C)C(=O)N[C@@H](CCC(=O)O)C(=O)N[C@@H](CO)C(=O)N[C@@H](CCC(=O)O)C(=O)N2CCC[C@H]2C(=O)N[C@@H](CO)C(=O)N[C@@H](CO)C(=O)NCC(=O)N[C@@H](C)C(=O)N2CCC[C@H]2C(=O)N2CCC[C@H]2C(=O)N2CCC[C@H]2C(=O)N[C@@H](CO)C(=O)O)NC(=O)[C@H](C(C)C)NC(=O)[C@H](Cc2ccccc2)NC(=O)[C@H](CCCCN)NC1=O` [Compound A28] (H-YSHGTFTSDYSKYLDK([γGlu-γGlu-AEEA-C20 diacid])KYAEKFVKWLESEPSSGAPPPS-OH; lactam 20-24; N-terminus assumed), the EC50 in series [1] was 2 pM; in series [2] it was more than 1000 pM.
`CC(C)C[C@H](NC(=O)[C@H](Cc1ccc(O)cc1)NC(=O)[C@H](CCCCN)NC(=O)[C@H](CO)NC(=O)[C@H](Cc1ccc(O)cc1)NC(=O)[C@H](CC(=O)O)NC(=O)[C@H](CO)NC(=O)[C@@H](NC(=O)[C@H](Cc1ccccc1)NC(=O)[C@@H](NC(=O)CNC(=O)[C@H](Cc1c[nH]cn1)NC(=O)[C@H](CO)NC(=O)[C@@H](N)Cc1ccc(O)cc1)[C@@H](C)O)[C@@H](C)O)C(=O)N[C@@H](CC(=O)O)C(=O)N[C@@H](CCCCNC(=O)CC[C@H](NC(=O)CC[C@H](NC(=O)COCCOCCNC(=O)CCCCCCCCCCCCCCCCCCC(=O)O)C(=O)O)C(=O)O)C(=O)N[C@@H](CCCCN)C(=O)N[C@@H](Cc1ccc(O)cc1)C(=O)N[C@@H](C)C(=O)N[C@H]1CCC(=O)NCCCC[C@@H](C(=O)N[C@@H](Cc2c[nH]c3ccccc23)C(=O)N[C@@H](CC(C)C)C(=O)N[C@@H](CCC(=O)O)C(=O)N[C@@H](CC(=O)O)C(=O)N[C@@H](CCC(=O)O)C(=O)N2CCC[C@H]2C(=O)N[C@@H](CO)C(=O)N[C@@H](CO)C(=O)NCC(=O)N[C@@H](CCC(=O)O)C(=O)N2CCC[C@H]2C(=O)N2CCC[C@H]2C(=O)N2CCC[C@H]2C(=O)N[C@@H](CO)C(=O)O)NC(=O)[C@H](C(C)C)NC(=O)[C@H](Cc2ccccc2)NC(=O)[C@H](CCCCN)NC1=O` [Compound A31] (H-YSHGTFTSDYSKYLDK([γGlu-γGlu-AEEA-C20 diacid])KYAEKFVKWLEDEPSSGEPPPS-OH; lactam 20-24; N-terminus assumed): the EC50 is 1.26 pM in series [1] and more than 1000 pM in series [2].
As for `CC(C)C[C@H](NC(=O)[C@H](Cc1ccc(O)cc1)NC(=O)[C@H](CCCCN)NC(=O)[C@H](CO)NC(=O)[C@H](Cc1ccc(O)cc1)NC(=O)[C@H](CC(=O)O)NC(=O)[C@H](CO)NC(=O)[C@@H](NC(=O)[C@H](Cc1ccccc1)NC(=O)[C@@H](NC(=O)CNC(=O)[C@H](Cc1c[nH]cn1)NC(=O)[C@H](CO)NC(=O)[C@@H](N)Cc1ccc(O)cc1)[C@@H](C)O)[C@@H](C)O)C(=O)N[C@@H](CC(=O)O)C(=O)N[C@@H](CCCCNC(=O)CC[C@H](NC(=O)CC[C@H](NC(=O)COCCOCCNC(=O)CCCCCCCCCCCCCCCCCCC(=O)O)C(=O)O)C(=O)O)C(=O)N[C@@H](CCCCN)C(=O)N[C@@H](Cc1ccc(O)cc1)C(=O)N[C@@H](C)C(=O)N[C@H]1CCC(=O)NCCCC[C@@H](C(=O)N[C@@H](Cc2c[nH]c3ccccc23)C(=O)N[C@@H](CC(C)C)C(=O)N[C@@H](CCC(=O)O)C(=O)N[C@@H](CC(=O)O)C(=O)N[C@@H](CCC(=O)O)C(=O)N2CCC[C@H]2C(=O)N[C@@H](CO)C(=O)N[C@@H](CO)C(=O)NCC(=O)N[C@@H](CCCCN)C(=O)N2CCC[C@H]2C(=O)N2CCC[C@H]2C(=O)N2CCC[C@H]2C(=O)N[C@@H](CO)C(=O)O)NC(=O)[C@H](C(C)C)NC(=O)[C@H](Cc2ccccc2)NC(=O)[C@H](CCCCN)NC1=O` [Compound A32] (H-YSHGTFTSDYSKYLDK([γGlu-γGlu-AEEA-C20 diacid])KYAEKFVKWLEDEPSSGKPPPS-OH; lactam 20-24; N-terminus assumed), the EC50 was 2 pM in series [1] and more than 1000 pM in series [2].
As to `CC(C)C[C@H](NC(=O)[C@H](Cc1ccc(O)cc1)NC(=O)[C@H](CCCCN)NC(=O)[C@H](CO)NC(=O)[C@H](Cc1ccc(O)cc1)NC(=O)[C@H](CC(=O)O)NC(=O)[C@H](CO)NC(=O)[C@@H](NC(=O)[C@H](Cc1ccccc1)NC(=O)[C@@H](NC(=O)CNC(=O)[C@H](Cc1c[nH]cn1)NC(=O)[C@H](CO)NC(=O)[C@@H](N)Cc1ccc(O)cc1)[C@@H](C)O)[C@@H](C)O)C(=O)N[C@@H](CC(=O)O)C(=O)N[C@@H](CCCCNC(=O)CC[C@H](NC(=O)CC[C@H](NC(=O)COCCOCCNC(=O)CCCCCCCCCCCCCCCCCCC(=O)O)C(=O)O)C(=O)O)C(=O)N[C@@H](CCCCN)C(=O)N[C@@H](Cc1ccc(O)cc1)C(=O)N[C@@H](C)C(=O)N[C@H]1CCC(=O)NCCCC[C@@H](C(=O)N[C@@H](Cc2c[nH]c3ccccc23)C(=O)N[C@@H](CC(C)C)C(=O)N[C@@H](CCC(=O)O)C(=O)N[C@@H](CC(=O)O)C(=O)N[C@@H](CCC(=O)O)C(=O)N2CCC[C@H]2C(=O)N[C@@H](CO)C(=O)N[C@@H](CO)C(=O)NCC(=O)N[C@@H](CO)C(=O)N2CCC[C@H]2C(=O)N2CCC[C@H]2C(=O)N2CCC[C@H]2C(=O)N[C@@H](CO)C(=O)O)NC(=O)[C@H](C(C)C)NC(=O)[C@H](Cc2ccccc2)NC(=O)[C@H](CCCCN)NC1=O` [Compound A33] (H-YSHGTFTSDYSKYLDK([γGlu-γGlu-AEEA-C20 diacid])KYAEKFVKWLEDEPSSGSPPPS-OH; lactam 20-24; N-terminus assumed), the EC50 in series [1] was 1.26 pM; in series [2] it was more than 1000 pM.
With `CC(C)C[C@H](NC(=O)[C@H](Cc1ccc(O)cc1)NC(=O)[C@H](CCCCN)NC(=O)[C@H](CO)NC(=O)[C@H](Cc1ccc(O)cc1)NC(=O)[C@H](CC(=O)O)NC(=O)[C@H](CO)NC(=O)[C@@H](NC(=O)[C@H](Cc1ccccc1)NC(=O)[C@@H](NC(=O)CNC(=O)[C@H](Cc1c[nH]cn1)NC(=O)[C@H](CO)NC(=O)[C@@H](N)Cc1ccc(O)cc1)[C@@H](C)O)[C@@H](C)O)C(=O)N[C@@H](CC(=O)O)C(=O)N[C@@H](CCCCNC(=O)CC[C@H](NC(=O)CC[C@H](NC(=O)COCCOCCNC(=O)CCCCCCCCCCCCCCCCCCC(=O)O)C(=O)O)C(=O)O)C(=O)N[C@@H](CCCCN)C(=O)N[C@@H](Cc1ccc(O)cc1)C(=O)N[C@@H](C)C(=O)N[C@H]1CCC(=O)NCCCC[C@@H](C(=O)N[C@@H](Cc2c[nH]c3ccccc23)C(=O)N[C@@H](CC(C)C)C(=O)N[C@@H](CCC(=O)O)C(=O)N[C@@H](CC(=O)O)C(=O)N[C@@H](CCC(=O)O)C(=O)N2CCC[C@H]2C(=O)N[C@@H](CO)C(=O)N[C@@H](CO)C(=O)NCC(=O)N[C@@H](C)C(=O)N2CCC[C@H]2C(=O)N2CCC[C@H]2C(=O)N2CCC[C@H]2C(=O)N[C@@H](CO)C(N)=O)NC(=O)[C@H](C(C)C)NC(=O)[C@H](Cc2ccccc2)NC(=O)[C@H](CCCCN)NC1=O` [Compound A34] (H-YSHGTFTSDYSKYLDK([γGlu-γGlu-AEEA-C20 diacid])KYAEKFVKWLEDEPSSGAPPPS-NH2; lactam 20-24), the EC50 in series [1] is 1.26 pM; in series [2], more than 1000 pM.
As to `CC(C)C[C@H](NC(=O)[C@H](Cc1ccc(O)cc1)NC(=O)[C@H](CCCCN)NC(=O)[C@H](CO)NC(=O)[C@H](Cc1ccc(O)cc1)NC(=O)[C@H](CC(=O)O)NC(=O)[C@H](CO)NC(=O)[C@@H](NC(=O)[C@H](Cc1ccccc1)NC(=O)[C@@H](NC(=O)CNC(=O)[C@H](Cc1c[nH]cn1)NC(=O)[C@H](CO)NC(=O)[C@@H](N)Cc1ccc(O)cc1)[C@@H](C)O)[C@@H](C)O)C(=O)N[C@@H](CC(=O)O)C(=O)N[C@@H](CCCCNC(=O)CC[C@H](NC(=O)CC[C@H](NC(=O)COCCOCCNC(=O)CCCCCCCCCCCCCCCCCCC(=O)O)C(=O)O)C(=O)O)C(=O)N[C@@H](CCCCN)C(=O)N[C@@H](Cc1ccc(O)cc1)C(=O)N[C@@H](C)C(=O)N[C@H]1CCC(=O)NCCCC[C@@H](C(=O)N[C@@H](Cc2c[nH]c3ccccc23)C(=O)N[C@@H](CC(C)C)C(=O)N[C@@H](CCC(=O)O)C(=O)N[C@@H](CC(=O)O)C(=O)N[C@@H](CCC(=O)O)C(N)=O)NC(=O)[C@H](C(C)C)NC(=O)[C@H](Cc2ccccc2)NC(=O)[C@H](CCCCN)NC1=O` [Compound A35] (H-YSHGTFTSDYSKYLDK([γGlu-γGlu-AEEA-C20 diacid])KYAEKFVKWLEDE-NH2; lactam 20-24; N-terminus assumed), the EC50 in series [1] was 1.26 pM; in series [2], more than 1000 pM.
As for “human amylin: Human amylin, or islet amyloid polypeptide (IAPP), is a 37-residue polypeptide hormone (KCNTATCATQRLANFLVHSSNNFGAILSSTNVGSNTY; Islet amyloid polypeptide; UniProt P10997 34-70, looked up)”, in series [3], the half-life in serum result is reported as “about 13 minutes”.
